In ChEMBL document CHEMBL1201862, “PubChem BioAssay data set” (2004):
The source made the active and inactive calls.

Legend:
[1] = target: Tumor necrosis factor (Homo sapiens, UniProt P01375); assay: TNFa-triggered NF-kB activation inhibitors, SAR follow-up, cell-based, revised (AID 2337); assay type: functional
[2] = tested on: HEK293; assay: cells; assay type: functional, cell-based; settings: Homo sapiens
[3] = tested on: HEK293; assay: cells; assay type: functional, cell-based; settings: Homo sapiens; remark: listed apart in the source
[4] = tested on: HEK293; assay: cells; settings: Homo sapiens
[5] = tested on: HEK293; assay: NOD2 signaling inhibitors in MDP-stimulated cells, cell-based, uHTS, luminescence (AID 2001); assay type: functional; settings: Homo sapiens
[6] = target: Nucleotide-binding oligomerization domain-containing protein 1 (Homo sapiens, UniProt Q9Y239); assay: NOD1 signaling inhibitors, SAR follow-up, revised (AID 2333); assay type: functional
Chain of Nucleotide-binding oligomerization domain-containing protein 1 (Q9Y239 whole entry, the tested form may be a part): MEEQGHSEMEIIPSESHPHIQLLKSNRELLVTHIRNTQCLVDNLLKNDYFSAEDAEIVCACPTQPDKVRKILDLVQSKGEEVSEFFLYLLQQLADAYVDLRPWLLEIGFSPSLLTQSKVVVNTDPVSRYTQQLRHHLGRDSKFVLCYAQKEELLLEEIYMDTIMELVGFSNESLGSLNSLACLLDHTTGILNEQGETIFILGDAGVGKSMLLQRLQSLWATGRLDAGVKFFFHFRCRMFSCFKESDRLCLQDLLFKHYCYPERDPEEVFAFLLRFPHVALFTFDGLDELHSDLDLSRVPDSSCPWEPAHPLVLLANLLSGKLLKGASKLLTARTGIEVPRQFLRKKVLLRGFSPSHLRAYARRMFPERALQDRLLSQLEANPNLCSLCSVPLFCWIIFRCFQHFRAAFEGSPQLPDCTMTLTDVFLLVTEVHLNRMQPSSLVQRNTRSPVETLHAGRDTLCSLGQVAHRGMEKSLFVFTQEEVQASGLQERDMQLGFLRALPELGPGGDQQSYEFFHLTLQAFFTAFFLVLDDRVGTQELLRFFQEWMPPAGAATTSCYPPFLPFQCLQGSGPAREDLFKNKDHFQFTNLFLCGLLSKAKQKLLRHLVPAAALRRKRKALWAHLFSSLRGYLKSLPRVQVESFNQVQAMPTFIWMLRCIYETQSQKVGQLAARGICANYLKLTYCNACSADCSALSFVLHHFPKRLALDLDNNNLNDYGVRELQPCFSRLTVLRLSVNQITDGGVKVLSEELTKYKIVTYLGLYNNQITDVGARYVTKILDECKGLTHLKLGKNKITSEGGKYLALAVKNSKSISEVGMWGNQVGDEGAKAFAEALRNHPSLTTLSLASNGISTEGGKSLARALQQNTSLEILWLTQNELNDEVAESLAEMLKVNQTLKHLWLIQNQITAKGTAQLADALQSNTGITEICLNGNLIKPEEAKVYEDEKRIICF

[7] = tested on: HEK293; assay: NOD1 signaling inhibitors, primary screen, cell-based, luminescence, uHTS (AID 1578); assay type: functional; settings: Homo sapiens
[8] = target: FAD-linked sulfhydryl oxidase ALR (Homo sapiens, UniProt P55789); assay: inhibitors of human ALR sulfhydryl oxidase, dose response, biochemical, H2O2 detection, luminescence, cherry-pick (AID 493248)
Chain of FAD-linked sulfhydryl oxidase ALR (P55789 whole entry): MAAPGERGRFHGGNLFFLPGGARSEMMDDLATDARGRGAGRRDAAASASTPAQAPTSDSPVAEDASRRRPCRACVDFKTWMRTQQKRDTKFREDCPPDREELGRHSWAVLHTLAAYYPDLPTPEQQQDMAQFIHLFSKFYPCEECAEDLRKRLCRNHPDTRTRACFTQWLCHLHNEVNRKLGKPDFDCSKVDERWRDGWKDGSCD

[9] = target: T1, Polyadenylate-binding protein 1 (Homo sapiens, UniProt P11940); assay: SAR analysis for the identification of translation initiation inhibitors (PABP) via an Electrophoretic Mobility Shift Dose Response Assay. [Related pubchem assays (depositor defined):AID2012, AID2014, AID2030]; assay type: functional
T1 sequence (P11940 whole entry): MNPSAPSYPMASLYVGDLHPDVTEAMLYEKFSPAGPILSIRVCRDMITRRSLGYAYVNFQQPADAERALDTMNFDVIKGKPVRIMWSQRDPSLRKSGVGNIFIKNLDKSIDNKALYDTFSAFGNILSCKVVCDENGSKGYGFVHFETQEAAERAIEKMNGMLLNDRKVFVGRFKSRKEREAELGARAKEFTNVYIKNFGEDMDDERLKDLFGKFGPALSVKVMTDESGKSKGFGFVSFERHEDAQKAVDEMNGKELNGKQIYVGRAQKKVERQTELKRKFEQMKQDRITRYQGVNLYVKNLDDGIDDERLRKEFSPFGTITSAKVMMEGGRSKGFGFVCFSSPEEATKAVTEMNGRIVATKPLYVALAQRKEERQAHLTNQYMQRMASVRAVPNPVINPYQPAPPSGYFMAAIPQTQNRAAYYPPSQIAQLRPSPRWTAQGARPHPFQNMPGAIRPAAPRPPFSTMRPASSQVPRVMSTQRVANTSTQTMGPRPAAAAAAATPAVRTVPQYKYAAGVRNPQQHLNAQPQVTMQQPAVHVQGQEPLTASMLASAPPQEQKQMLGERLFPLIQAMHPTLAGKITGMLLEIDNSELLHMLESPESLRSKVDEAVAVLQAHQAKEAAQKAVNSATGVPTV

[10] = target: Eukaryotic translation initiation factor 4H (Homo sapiens, UniProt Q15056); assay: eIF4H inhibition in translation initiation, SAR follow-up (AID 435011); assay type: functional
[11] = target: T1, Polyadenylate-binding protein 1; assay: PABP inhibition in translation initiation, SAR follow-up (AID 435018); assay type: functional
[12] = Artemis endonuclease inhibitor potency, dose response, biochemical, fluorescence intensity (AID 720701); assay type: functional;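 note: Artemis endonuclease enzyme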
[13] = target: T2, Intestinal-type alkaline phosphatase (Mus musculus, UniProt P24822); assay: PubChem AID 488785; assay type: functional
T2 sequence (P24822 whole entry): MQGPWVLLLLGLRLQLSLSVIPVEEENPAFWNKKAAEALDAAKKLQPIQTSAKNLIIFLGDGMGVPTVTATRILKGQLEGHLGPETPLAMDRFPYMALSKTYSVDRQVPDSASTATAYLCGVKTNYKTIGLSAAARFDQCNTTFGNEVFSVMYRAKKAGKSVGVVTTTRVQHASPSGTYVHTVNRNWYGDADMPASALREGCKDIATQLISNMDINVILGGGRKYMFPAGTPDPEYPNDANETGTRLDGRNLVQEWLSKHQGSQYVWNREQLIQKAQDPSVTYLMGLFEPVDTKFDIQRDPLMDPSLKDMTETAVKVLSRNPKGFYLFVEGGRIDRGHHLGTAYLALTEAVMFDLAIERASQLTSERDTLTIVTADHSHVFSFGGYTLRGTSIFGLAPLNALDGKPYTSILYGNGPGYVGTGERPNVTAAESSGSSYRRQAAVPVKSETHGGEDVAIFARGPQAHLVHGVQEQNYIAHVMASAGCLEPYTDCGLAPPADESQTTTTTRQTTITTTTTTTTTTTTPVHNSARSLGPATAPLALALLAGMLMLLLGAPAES

[14] = target: T3, Intestinal-type alkaline phosphatase (Homo sapiens, UniProt P09923); assay: activation of human intestinal alkaline phosphatase – biochemical, dose response (AID 488873); assay type: functional
T3 sequence (P09923 whole entry): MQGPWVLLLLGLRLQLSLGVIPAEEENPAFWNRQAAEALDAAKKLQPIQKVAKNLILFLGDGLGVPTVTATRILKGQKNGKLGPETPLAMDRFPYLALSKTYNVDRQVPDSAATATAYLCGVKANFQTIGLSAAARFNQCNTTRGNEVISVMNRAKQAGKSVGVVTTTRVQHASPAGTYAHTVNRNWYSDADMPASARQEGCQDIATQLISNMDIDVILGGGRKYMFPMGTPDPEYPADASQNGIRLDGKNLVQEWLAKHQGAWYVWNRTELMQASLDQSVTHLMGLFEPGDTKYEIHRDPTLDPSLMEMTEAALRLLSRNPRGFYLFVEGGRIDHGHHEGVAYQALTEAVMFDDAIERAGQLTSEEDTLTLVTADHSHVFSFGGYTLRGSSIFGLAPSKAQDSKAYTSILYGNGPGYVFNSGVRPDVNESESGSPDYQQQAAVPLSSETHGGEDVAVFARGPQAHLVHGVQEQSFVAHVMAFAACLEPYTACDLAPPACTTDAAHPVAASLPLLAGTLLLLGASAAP

[15] = target: T4, Alkaline phosphatase, tissue-nonspecific isozyme (Homo sapiens, UniProt P05186); assay: TNAP enzyme inhibition by screening hits, dose response, selectivity assay for mouse IAP inhibitor project, biochemical, human TNAP, uHTS hits (AID 488906); assay type: functional
T4 sequence (P05186 whole entry): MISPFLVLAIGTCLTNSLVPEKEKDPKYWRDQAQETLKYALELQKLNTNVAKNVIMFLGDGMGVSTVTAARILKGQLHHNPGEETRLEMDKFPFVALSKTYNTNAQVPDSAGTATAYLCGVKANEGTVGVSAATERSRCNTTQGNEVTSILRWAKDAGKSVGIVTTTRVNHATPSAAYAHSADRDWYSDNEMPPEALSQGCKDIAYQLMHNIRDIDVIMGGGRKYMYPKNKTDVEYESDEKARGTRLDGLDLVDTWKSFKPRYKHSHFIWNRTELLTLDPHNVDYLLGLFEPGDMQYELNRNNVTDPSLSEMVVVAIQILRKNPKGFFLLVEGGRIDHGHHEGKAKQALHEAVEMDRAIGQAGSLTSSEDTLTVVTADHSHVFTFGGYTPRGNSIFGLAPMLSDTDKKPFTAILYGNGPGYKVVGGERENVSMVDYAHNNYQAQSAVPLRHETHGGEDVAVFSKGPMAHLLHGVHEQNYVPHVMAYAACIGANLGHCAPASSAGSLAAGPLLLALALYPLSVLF

[16] = target: T2, Intestinal-type alkaline phosphatase; assay: PubChem AID 488874; assay type: functional
[17] = target: Heat shock protein HSP 90-alpha (Homo sapiens, UniProt P07900); assay type: functional, organism-based
[18] = target: T3, Intestinal-type alkaline phosphatase; assay: human IAP inhibitors, dose response, biochemical, luminescent, uHTS hits, set 2 (AID 488793); assay type: functional
[19] = target: T5, Aminopeptidase N (Plasmodium falciparum FcB1/Columbia, UniProt O96935); assay: P. falciparum M1AAP inhibitors, biochemical, fluorogenic H-Leu-NHMec substrate, 1536-well (AID 1445); parameters: species or system Plasmodium falciparum 3D7, 3D7
T5 sequence (O96935 whole entry): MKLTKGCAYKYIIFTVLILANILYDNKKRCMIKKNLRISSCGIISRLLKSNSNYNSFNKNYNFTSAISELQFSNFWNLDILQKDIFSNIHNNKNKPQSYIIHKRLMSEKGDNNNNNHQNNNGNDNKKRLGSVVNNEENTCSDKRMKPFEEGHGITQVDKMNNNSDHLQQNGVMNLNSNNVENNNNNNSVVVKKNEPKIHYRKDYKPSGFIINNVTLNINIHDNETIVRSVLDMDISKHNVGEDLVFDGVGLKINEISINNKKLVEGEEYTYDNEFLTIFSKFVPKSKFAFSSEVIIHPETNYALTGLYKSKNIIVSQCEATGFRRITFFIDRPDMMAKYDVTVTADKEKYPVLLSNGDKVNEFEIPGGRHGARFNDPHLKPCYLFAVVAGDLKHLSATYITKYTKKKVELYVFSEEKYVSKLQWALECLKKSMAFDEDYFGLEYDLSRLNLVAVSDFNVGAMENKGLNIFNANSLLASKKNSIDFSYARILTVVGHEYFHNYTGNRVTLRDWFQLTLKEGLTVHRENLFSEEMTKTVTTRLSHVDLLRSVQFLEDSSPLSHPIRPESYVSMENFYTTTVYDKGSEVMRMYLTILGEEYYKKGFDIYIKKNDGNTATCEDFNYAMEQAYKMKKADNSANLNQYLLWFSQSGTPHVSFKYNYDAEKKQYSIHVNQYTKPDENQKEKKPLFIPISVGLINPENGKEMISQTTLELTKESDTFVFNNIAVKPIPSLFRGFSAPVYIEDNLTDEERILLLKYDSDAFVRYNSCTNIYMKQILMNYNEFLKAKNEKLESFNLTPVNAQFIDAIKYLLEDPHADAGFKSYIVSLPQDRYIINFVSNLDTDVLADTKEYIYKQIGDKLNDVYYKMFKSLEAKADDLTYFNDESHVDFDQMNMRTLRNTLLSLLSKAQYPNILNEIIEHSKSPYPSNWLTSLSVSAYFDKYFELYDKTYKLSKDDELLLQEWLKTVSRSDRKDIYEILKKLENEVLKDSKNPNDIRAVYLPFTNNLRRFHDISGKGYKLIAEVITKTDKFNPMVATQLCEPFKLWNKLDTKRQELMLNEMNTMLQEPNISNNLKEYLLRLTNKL

[20] = target: T3, Intestinal-type alkaline phosphatase; assay: Dose Response confirmation of uHTS hits from a small molecule inhibitors of human intestinal alkaline phosphatase via a luminescent assay. [Related pubchem assays (depositor defined):AID2544, AID2574]; assay type: functional
[21] = target: 72 kDa type IV collagenase (Homo sapiens, UniProt P08253); assay: Dose Response validation of uHTS RPN11 inhibitor hits using a MMP-2 Fluorescence assay.; assay type: functional
Chain of 72 kDa type IV collagenase (P08253 whole entry): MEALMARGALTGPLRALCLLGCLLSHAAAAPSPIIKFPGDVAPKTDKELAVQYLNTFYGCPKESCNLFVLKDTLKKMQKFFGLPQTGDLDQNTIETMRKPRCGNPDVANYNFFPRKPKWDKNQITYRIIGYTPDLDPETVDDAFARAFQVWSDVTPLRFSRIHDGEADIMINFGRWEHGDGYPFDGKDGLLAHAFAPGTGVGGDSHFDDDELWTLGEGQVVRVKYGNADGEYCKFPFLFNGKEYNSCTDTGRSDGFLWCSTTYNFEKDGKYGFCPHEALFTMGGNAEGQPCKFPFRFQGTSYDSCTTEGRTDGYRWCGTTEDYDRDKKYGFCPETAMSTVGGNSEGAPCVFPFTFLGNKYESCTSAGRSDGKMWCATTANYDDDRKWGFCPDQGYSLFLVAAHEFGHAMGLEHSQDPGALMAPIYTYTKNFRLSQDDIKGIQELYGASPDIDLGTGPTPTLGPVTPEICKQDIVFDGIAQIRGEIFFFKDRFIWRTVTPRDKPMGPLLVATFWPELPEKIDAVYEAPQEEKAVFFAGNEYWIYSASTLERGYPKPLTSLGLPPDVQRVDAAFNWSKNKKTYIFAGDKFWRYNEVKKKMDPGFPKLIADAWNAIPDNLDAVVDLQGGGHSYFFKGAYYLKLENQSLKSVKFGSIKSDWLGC

[22] = target: Prothrombin (Bos taurus, UniProt P00735); assay: thrombin inhibition, dose response, biochemical, fluorescence polarization, uHTS hits (AID 602369); assay type: functional
[23] = target: T4, Alkaline phosphatase, tissue-nonspecific isozyme; assay: inhibition of tissue-nonspecific alkaline phosphatase – biochemical, dose response (AID 488882); assay type: functional
[24] = target: 26S proteasome non-ATPase regulatory subunit 14 (Homo sapiens, UniProt O00487); assay: inhibition of proteasome subunit RPN11 – biochemical, fluorescence polarization, uHTS hits, confirmation (AID 602368); assay type: functional
Chain of 26S proteasome non-ATPase regulatory subunit 14 (O00487 whole entry): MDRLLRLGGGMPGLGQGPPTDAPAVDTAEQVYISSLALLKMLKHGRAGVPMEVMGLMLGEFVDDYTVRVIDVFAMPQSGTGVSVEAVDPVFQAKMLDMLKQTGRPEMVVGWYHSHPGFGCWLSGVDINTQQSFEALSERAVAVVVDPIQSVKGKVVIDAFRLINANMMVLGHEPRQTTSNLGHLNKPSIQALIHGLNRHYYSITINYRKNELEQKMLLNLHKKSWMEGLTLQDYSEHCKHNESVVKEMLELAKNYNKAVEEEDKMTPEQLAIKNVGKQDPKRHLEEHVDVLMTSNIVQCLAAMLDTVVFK

Chain of Tumor necrosis factor (P01375 whole entry): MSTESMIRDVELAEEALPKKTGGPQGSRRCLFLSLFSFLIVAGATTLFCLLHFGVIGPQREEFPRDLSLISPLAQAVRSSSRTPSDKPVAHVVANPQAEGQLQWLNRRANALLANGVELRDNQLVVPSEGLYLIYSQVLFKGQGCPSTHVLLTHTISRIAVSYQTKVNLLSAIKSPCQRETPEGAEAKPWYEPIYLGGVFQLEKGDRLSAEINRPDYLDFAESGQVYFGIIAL

O=C(Nc1sc2c(c1C(=O)O)CCCC2)c1ccc(Cl)cc1
IC50 [1]: 13.4 µM (active)
IC50 [2]: > 20 µM (inactive)
IC50 [3]: > 20 µM (inactive)
IC50 [4]: > 20 µM (inactive)
IC50 [5]: 16 µM (inactive)
IC50 [6]: 2.86 µM (active)
EC50 [7]: 6.58 µM (active)

COc1ccc(N2Cc3cccc(C(=O)NC(C)CCc4ccco4)c3C2=O)cc1 (centres undefined)
AC50 [8]: 1.06 µM (active)
IC50 [9]: 10 µM (active)
IC50 [10]: 5.42 µM (active)
IC50 [11]: > 100 µM (inactive)

O=C(O)CC(C(=O)O)N1C(=O)/C(=C/c2ccc(-c3nc4ccccc4s3)o2)SC1=S (centres undefined)
IC50 [12]: > 20 µM (inactive)
IC50 [13]: 13.4 µM (active)
EC50 [14]: > 100 µM (inactive)
IC50 [15]: 24.3 µM (active)

O=C(NN1C(=O)/C(=C/c2ccc(O)c([N+](=O)[O-])c2)SC1=S)c1ccccc1Cl
IC50 [16]: 10.6 µM (active)
AC50 [17]: 2.86 µM (active)
IC50 [18]: 22.9 µM (active)
IC50 [19]: 71.1 µM (active)
IC50 [20]: 25.4 µM (inactive)
IC50 [21]: 82.1 µM (active)
IC50 [22]: 32 µM (active)
IC50 [23]: 29.8 µM (active)
IC50 [24]: 39.7 µM (active)
